From patent US12491514B2, “Device, system, and method for trapping tissue samples” (University of Washington, priority 2019, dated 2025)

Tests used:
U87 glioma cuboids = experiment: Drug treatment of U87 glioma cuboids on the microfluidic device, SYTOX green/Hoechst cell death staining; type: cell-based; settings: for cell death response, mean fluorescence ratio SG dead nuclear to Hoechst pan-nuclear: 2 days (day 1 to day 3), U87 cuboids in device
Experimental: U87 cuboids were cultured in collagen hydrogel. We prepared 80% collagen (Corning rat tail collagen type 1, 354236, 3-4 mg/mL), 10% 10×PBS, and 10% serum-free medium. We then used filtered-sterilized 1M NaOH to neutralize the pH to ˜7.2. For culture in 6 well plates, cuboids were cultured in 1 mL collagen on top of a 0.4 μm filter Transwell PFTE membrane insert (PICMORG50, Millipore) with 1.3 mL culture medium placed below. Cuboids were cultured both with and without an additional layer of pre-gelled 1 mL collagen below with similar histology and staining observed, apart from a relatively flatter shape often seen without the extra collagen layer. The culture medium contained Neurobas al-A medium (Invitrogen) with 25% heat-inactivated horse serum (Sigma), Glutamax (Invitrogen), 2× penicillin/streptomycin (Invitrogen), and growth factors (EGF 20 ng/mL and FGF 20 ng/mL, Preprotech or Invitrogen). Cisplatin (3 mM stock in dH2O, MedChem Express) was diluted in cell culture medium for the drug treatment experiment. Liver cuboids were cultured in 1 mL of collagen hydrogel on a Millipore insert with constant shaking. Culture medium was William's Medium (with L-glutamine, Invitrogen, Scotland) supplemented with 25 mM glucose (Sigma-Aldrich, USA), 30 nM insulin (ITS+premix, Zen-Bio, Inc., USA), 1 nM EGF (Preprotech), 5% Pen Strep (Sigma-Aldrich, USA), 100 nM glucagon (Sigma-Aldrich, USA). Live U87 glioma cuboids were stained for 1 hour, 37° C., with the following dyes (individually or in combination) diluted in culture medium: Cell Tracker Green CMFDA (Invitrogen, 10 μM), Cell Tracker Orange CMRA (Invitrogen, 10 μM), Hoechst (H; Invitrogen, 16 μM), and/or SYTOX green (SG; Invitrogen, 0.01 μM). […] Mean SG fluorescence was normalized to the average value of untreated cuboids. […] As a straightforward simple measure of cell viability, we measured the mean fluorescence ratio in epifluorescence images of SG dead nuclear fluorescence to Hoechst pan-nuclear fluorescence (FIG. 12B). […]

U87 glioma slices = experiment: Previous experiments with U87 glioma slices on and off a microfluidic device, SG/H live viability staining; type: cell-based; settings: 30 and 100 μM

N.N.[Cl][Pt][Cl] [cisplatin]
cell death response, mean fluorescence ratio SG dead nuclear to Hoechst pan-nuclear (U87 glioma cuboids; 30 μM): statistically significant response | mean increase of SG (SYTOX green dead stain) fluorescence normalized to the mean (U87 glioma cuboids; 100 μM, 2-day maximal drug treatment, used as threshold for death): 1.4 | cell death response, mean fluorescence ratio SG dead nuclear to Hoechst pan-nuclear (U87 glioma cuboids; 100 μM): showing a trend | response by SG/H live viability staining (U87 glioma slices): cell death
